Tested on: SARS-CoV-2
Test: CPE inhibition assay, anti-SARS-CoV-2 virus activity in vitro (Test Example 4)
Type: cell-based
Details: for inhibition at 10 µM: Severe acute respiratory syndrome coronavirus 2, VeroE6/TMPRSS2, 72 h, read-out: Anti SARS-CoV-2 activity; for Anti SARS-CoV-2 activity: CPE inhibition at 10 µM, VeroE6-TMPRSS2 cells, MOI 0.01, third day post infection, average of three tests

Compound | inhibition at 10 µM | Anti SARS-CoV-2 activity
CCOC(=O)[C@@H]1CC[C@H]2N1C(=O)[C@@H](Cc1ccccc1)N1C(=O)N(Cc3ccccc3)C(=O)N(Cc3ccccc3)[C@]21O [Compound 1A, Ethyl (6R,9S,11aR,11bR)-1,3,6-tribenzyl-11b-hydroxy-2,4,7-trioxodecahydro-2H-pyrrolo[2',1':3,4]pyrazino[1,2-a][1,3,5]triazine-9-carboxylate] | < 1% | –
Ethyl (6R,9S,11aR)-11b-hydroxy-6-isopropyl-2.4,7-trioxo-1,3-bis(thiophen-2-ylmethyl)decahydro-2H-pyrrolo[2',1':3,4] pyrazino[1,2-a][1,3,5] triazine-9-carboxylate [Compound 27A] | – | A (a CPE inhibition effect of 5% or more)
Ethyl (6R)-1,3,6-tribenzyl-11b-hydroxy-2,4,7-trioxodecahydro-2H-pyrrolo[2',1':3,4] pyridazino[1,2-a] [1,3,5]triazine-9-carboxylate [Compound 22A] | – | B (a CPE inhibition effect of less than 5% but 1% or more)
(6R,9S,10aR)-1,3,6-tribenzyl-10b-hydroxy-N-(naphthalen-2-ylmethyl)-2,4,7-trioxodecahydroazeto[2',1 ':3,4]pyrazino[1.2-a][1,3,5]triazine-9-carboxamide [Compound 20D] | – | A (a CPE inhibition effect of 5% or more)
Ethyl (6S,9R,11aS)-6-benzyl-11b-hydroxy-2,4.7-trioxo-1,3-bis(thiophen-2-ylmethyl) decahydro-2H-pyrrolo[2',1':3,4] pyrazino[1,2-a][1,3,5] triazine-9-carboxylate [Compound 23A] | – | A (a CPE inhibition effect of 5% or more)
Ethyl (6S,9R,11aS,11bS)-1,3,6-tribenzyl-11b-hydroxy-2,4.7-trioxodecahydro-2H-pyrrolo [2',1':3,4]pyrazino[1,2-a][1,3,5] triazine-9-carboxylate [Compound 4A] | – | C (less than 1%)
(6R,9S,11aR,11bR)-1,3-Dibenzyl-11b-hydroxy-N,6-bis(naphthalen-2-ylmethyl)-2.4.7-trioxodecahydro-2H-pyrrolo[2'.1':3,4] pyrazino[1,2-a][1,3,5] triazine-9-carboxamide [Compound 7D] | – | B (a CPE inhibition effect of less than 5% but 1% or more)
O=C(NCc1ccc2ccccc2c1)[C@@H]1CCC2=C3N(Cc4ccccc4)C(=O)N(Cc4ccccc4)C(=O)N3[C@H](Cc3ccc4ccccc4c3)C(=O)N21 [Compound 7E, (6R,9S)-1,3-Dibenzyl-N,6-Bis(naphthalen-2-ylmethyl) -2,4,7-trioxo-1,3,4,6,7,9,10, 11-octahydro-2H-pyrrolo [2',1':3,4]pyrazino[1,2-a] [1,3,5]triazine-9-carboxamide] | 1 to 5% | –
CCOC(=O)[C@@H]1CCC2=C3N(Cc4ccccc4)C(=O)N(Cc4ccccc4)C(=O)N3[C@H](C(C)C)C(=O)N21 [Compound 3B, Ethyl (6R.9S) 1,3-dibenzyl 6 isopropyl-2.4.7 trioxo-1,3,4,6,7,9,10,11-octahydro 2H-pyrrolo[2',1':3.4]pyrazi no[1,2 a][1,3,5] triazine 9 carboxylate] | > 5% | –
O=C(NCc1ccc2ccccc2c1)[C@H]1CCCC2=C3N(Cc4ccccc4)C(=O)N(Cc4ccccc4)C(=O)N3[C@H](Cc3ccccc3)C(=O)N21 [Compound 25E, (6R,9R)-1,3,6-Tribenzyl-N-(naphthalen-2-ylmethyl)-2,4,7-trioxo-1,2,3,4,6,7,9,10,11,12-decahydropyrido[2',1':3,4] pyrazino[1,2-a][1,3,5]triazine-9-carboxamide] | 1 to 5% | –
(6R,9S,11aR,11bR)-1,3-bis(furan-2-ylmethyl)-11b-hydroxy-6-isopropyl-N-(naphthalen-2-ylmethyl)-2,4,7-trioxodecahydro-2H-pyrrolo[2',1':3,4]pyridazin e[1,2-a] [1,3,5]triazine-9-carboxamide [Compound 28D] | – | A (a CPE inhibition effect of 5% or more)
O=C(NCc1ccc2ccccc2c1)[C@@H]1CC[C@H]2N1C(=O)C1(Cc3ccccc3C1)N1C(=O)N(Cc3ccccc3)C(=O)N(Cc3ccccc3)C21O (stereo partly drawn) [Compound 21D, (9'S,11a'R)-1',3'-Dibenzyl-11b'-Hydroxy-N-(naphthalen-2-ylmethyl)-2',4',7'-trioxo-1,1',3,3',4',9',10',11',11a',1 1b'-decahydro-2'H,7'H-spiro[indene-2,6'-pyrrolo[2',1':3,4]pyrazino[1,2-a][1,3,5]triazine]-9'-carboxamide] | 1 to 5% | –
O=C1[C@@H](Cc2ccccc2)N2C(=O)N(Cc3ccccc3)C(=O)N(Cc3ccccc3)C2=C2CCCN12 [Compound 9B, (R) 1.3.6-Tribenzyl-1,9,10,11-tetrahydro-2H-pyrrolo[2',1':3,4] pyridazino[1,2-a][1,3,5]triazine-2,4,7(3H,6H)-trione] | < 1% | –
(6S,9R,11aS,11bS)-1,3-Dibenzyl-11b-hydroxy-6-isopropyl-N-(naphthalen-2^-ylmethyl)-2,4,7-trioxodecahydro-2H-pyrrolo[2',1':3,4]pyrazino[ 1,2-a][1,3,5]triazine-9-carboxamide [Compound 26D] | – | A (a CPE inhibition effect of 5% or more)
(6R,10R.11aS)-1,3.6-tribenzyl-10-(benzyl oxy)-11b-hydroxyhexahydro-2H-pyrrolo [2',1':3,4]pyridazino[1,2-a][1,3,5 triazine-2,4,7(3H.6H)-trione [Compound 14A] | – | B (a CPE inhibition effect of less than 5% but 1% or more)
CC(C)OC(=O)[C@@H]1CC[C@H]2N1C(=O)[C@@H](Cc1ccccc1)N1C(=O)N(Cc3cccs3)C(=O)N(Cc3cccs3)[C@]21O [Compound 18G, Isopropyl (6R,9S,11aR,11bR)-6-benzyl-11b-hydroxy-2,4,7-trioxo-1,3-bis(thiophen-2-ylmethyl)decahydro-2H-pyrrolo [2',1':3,4]pyridazine[1,2-a][1,3,5]triazine-9-carboxylate] | – | A (a CPE inhibition effect of 5% or more)
(6R,9S,11aR)-11b-Hydroxy-6-isopropyl-N-(naphthalen-2-ylmethyl)-2,4,7-trioxo-1,3-bis(thien-2-ylmethyl)decahydro- 2H-pyrrolo[2',1':3,4] pyridazine[1,2-a][1,3,5] triazine-9-carboxamide [Compound 27D] | – | A (a CPE inhibition effect of 5% or more)
CCOC(=O)[C@@H]1CC[C@H]2N1C(=O)[C@@H](C(C)C)N1C(=O)N(Cc3ccco3)C(=O)N(Cc3ccco3)[C@]21O [Compound 28A, Ethyl (6R,9S,11aR,11bR)-1,3-bis(furan-2-ylmethyl)-11b-hydroxy-6-isopropyl-2,4,7-trioxodecahydro-2H-pyrrolo[2',1':3,4] pyrazino[1,2-a][1,3,5] triazine-9-carboxylate] | > 5% | –
(6R,9S,11aR,11bR)-1,3-Dibenzyl-11b-hydroxy-6-isopropyl-2,4,7-trioxo-phenyl-deca-hydro-2H-pyrrolo [2',1':3,4]pyrazino[1, 2-a][1,3,5]triazine-9-carboxamide [Compound 3G] | – | A (a CPE inhibition effect of 5% or more)
O=C(NCc1ccc2ccccc2c1)[C@@H]1CCC2=C3N(Cc4ccccc4)C(=O)N(Cc4ccccc4)C(=O)N3[C@H](CC3CCCC3)C(=O)N21 [Compound 8E, (6R,9S)-1,3-Dibenzyl-6-(cyclopentylmethyl)-N-(naphthalen-2-ylmethyl)-2,4,7-trioxo-1,3,4,6,7,9,10,11-octahydro-2H-pyrrolo [2',1':3,4]pyrazino[1,2-a] [1,3,5]triazine-9-carboxamide] | < 1% | –
CC[C@@]1(C(C)C)C(=O)N2[C@H](C(=O)NCc3ccc4ccccc4c3)CC[C@@H]2[C@@]2(O)N(Cc3ccccc3)C(=O)N(Cc3ccccc3)C(=O)N21 [Compound 29D, (6R,9S,11aR,11bR)-1,3-Dibenzyl-6-ethyl-11b-hydroxy-6-isopropyl-N-(naphthalen-2-ylmethyl)-2,4,7-trioxodecahydro-2H-pyrrolo[2',1':3,4] pyrazino[1,2-a][1,3,5] triazine-9-carboxamide] | > 5% | –
Ethyl (6R.9S.11aR.11b R) 6 benzyl 11b-hydroxy 2,4,7 trioxo-1.3 bis(thiophen 2 ylm ethyl)decahydro-2H-pyrrolo[2',1':3,4] pyridazine[1,2-a] [1,3,5]triazine 9 carboxylate [Compound 18A] | – | A (a CPE inhibition effect of 5% or more)
O=C(NCc1ccc2ccccc2c1)[C@H]1CCC2=C3N(Cc4ccccc4)C(=O)N(Cc4ccccc4)C(=O)N3[C@@H](Cc3ccccc3)C(=O)N21 [Compound 4E, (6S,9R)-1,3,6-Tribenzyl-N-(naphthalen-2-ylmethyl)-2,4,7-trioxo-1,3,4,6,7,9,10,1 1-octahydro-2H-pyrrolo [2',1':3,4]pyrazino[1,2-a] [1,3,5]triazine-9-carboxamide] | 1 to 5% | –
Ethyl (6R,9S,11aR,11bR)-1,3-dibenzyl-11b-hydroxy-6-(4-methoxybenzyl)-2,4.7-trioxodecahydro-2H-pyrrolo [2',1':3,4]pyrazino[1,2-a][1,3,5] triazine-9-carboxylate [Compound 6A] | – | C (less than 1%)
(6R,9S,11aR,11bR)-6-benzyl-11b-hydroxy-N-(naphthalen-2-ylmethyl)-2 ,4,7-trioxo-1,3-bis (thien-2-ylmethyl) decahydro-2H-pyrrolo [2',1':3,4]pyridazino[1,2-a] [1.3,5]triazine-9-carboxamide [Compound 18D] | – | C (less than 1%)
(6R.11aR)-1,3,6-tribenzyl-11b-hydroxy-11a-methylhexahydro-2H-pyrrolo[2',1':3,4] pyrazino[1,2-a][1,3,5] triazine-2,4,7(3H,6H)-trione [Compound 19A] | – | A (a CPE inhibition effect of 5% or more)
CC(C)[C@@H]1C(=O)N2[C@H](C(=O)NCc3ccccc3)CC[C@@H]2[C@@]2(O)N(Cc3ccccc3)C(=O)N(Cc3ccccc3)C(=O)N12 [Compound 3F, (6R,9S,11aR,11bR)-N,1,3-tribenzyl-11b-hydroxy-6-isopropyl-2,4,7-trioxodecahydro-2H-pyrrolo[2',1':3,4]pyrazino[1,2-a][1,3,5]triazine-9-carboxamide] | > 5% | –
